Where two headings read alike, the source gives them in different places. Square brackets hold non-standard residues; d marks the D form. Peptide text beside a SMILES is read from it. * marks the point of attachment. X1 = C=CC1=C(C)c2cc3[nH]c(cc4nc(cc5[nH]c(cc1n2)c(C)c5CCC(=O)O)C(CCC(=O)*)=C4C)c(C)c3C=C; pGlu = O=C1CC[C@@H](C(=O)O)N1; Butyryl = CCCC(=O)*

These results are taken from paper PMC6829278, “Suitability of GnRH Receptors for Targeted Photodynamic Therapy in Head and Neck Cancers” (International Journal of Molecular Sciences, 2019).

In test [1] the test system is Detroit-562 human pharyngeal carcinoma cells. Nature of the test: cells. Particulars: for Effect of incubation time on cell viability inhibition: incubation 1, 3 or 5 h. The protocol:
(compound 5) was used for the optimization of the conditions of the cell viability inhibition assays. First, the irradiation time was optimized. Detroit-562 pharyngeal cells were treated with the peptide-PpIX conjugate for 5 h, the unbound conjugate was washed out, and then the cells were irradiated for 0, 2, 10, or 30 min followed by 72 h of further incubation (Figure 6A).
Afterwards, the incubation time was optimized.
The cell viability inhibition of the synthesized GnRH-PpIX conjugates was measured on Detroit-562 cells using the previously optimized conditions (5 h treatment, 10 min irradiation).
Cells were seeded to 96-well plates (6·× 10^3 cells/well) 48 h prior to the treatment. The cells were treated with the peptides (10 μM) and conjugates (0.025–10 μM) in darkness. Stock solutions of the compounds were prepared in DMSO (5 mM) and all dilutions were made to contain 0.2% DMSO final concentration. The control wells were treated with medium or 0.2% DMSO containing medium. After 1, 3, or 5 h, the cells were washed once with medium, irradiated for 0, 2, 10, or 30 min and incubated for a further 72 h. The irradiation was performed by an Oriel type 250 W Quartz Tungsten Halogen lamp (Newport Corporation, CA, USA) with a 550 nm emission maximum. The light was filtered to exclude UV and IR components. The fluence rate was determined by a 10 A-P Nova laser power/energy monitor (Ophir, Optronix, Jerusalem, Israel) using the pyro-electric detector. Then, the MTT-test was performed according to the manufacturer’s instructions. Each point was measured using 3 parallels and each experiment was repeated twice.

For test [2], the target named is T1, GnRH-R (membranes of human prostate cancer cells) (Homo sapiens, UniProt P30968).
T1 construct: human prostate cancer cells were obtained from a patient at the time of initial surgical treatment; from tissue; host or cells: human prostate cancer specimen from a patient at surgery; membrane homogenates
T1 sequence (P30968 1-328): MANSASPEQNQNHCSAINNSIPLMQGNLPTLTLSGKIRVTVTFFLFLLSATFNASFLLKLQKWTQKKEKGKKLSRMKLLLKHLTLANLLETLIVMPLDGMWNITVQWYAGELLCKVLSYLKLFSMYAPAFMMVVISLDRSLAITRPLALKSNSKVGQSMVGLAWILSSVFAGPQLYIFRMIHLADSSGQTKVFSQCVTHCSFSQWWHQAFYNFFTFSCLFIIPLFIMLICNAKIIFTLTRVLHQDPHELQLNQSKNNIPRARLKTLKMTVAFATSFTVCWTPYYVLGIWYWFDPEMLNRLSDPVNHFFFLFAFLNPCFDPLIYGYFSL
Nature of the test: Radioligand binding (ligand competition) assay, displacement of [125I]-[6D-Trp]-GnRH-I, human prostate cancer membranes. The text has this:
(§1) The binding potency of the GnRH analogs and the GnRH-PpIX conjugates to human pituitary and human prostate cancer cells, that express GnRH-R in high concentration, was investigated by ligand competition assay.
(§2) Tissue samples derived by autopsy from normal human pituitary (anterior lobe) and human prostate cancer cells were obtained from a patient at the time of initial surgical treatment. The collection and the use of these specimens for our studies are approved by the local Institutional Ethics Committee. […] The assay was performed as described earlier. […] At the end of the incubation, 125 µL aliquots of suspension were transferred onto the top of 1 mL of ice-cold binding buffer containing 1.5% BSA in microcentrifuge tubes. The tubes were centrifuged at 12,000× g for 3 min at 4 °C. Supernatants were aspirated and the pellet was counted in a gamma counter. Protein concentration was determined by the method of Bradford, using a Bio-Rad protein assay kit (Bio-Rad Laboratories, Hercules, CA, USA). The LIGAND-PC computerized curve-fitting program of Munson and Rodbard was used to determine the receptor binding characteristics and IC50 values.
In general terms: Displacement assays read how much labelled ligand stays bound in the presence of the test substance.

Test [3] addresses T2, GnRH-R (membranes of human pituitary) (Homo sapiens, UniProt P30968).
T2 construct: Tissue samples derived by autopsy from normal human pituitary (anterior lobe); from tissue; host or cells: normal human pituitary (anterior lobe), autopsy; membrane homogenates
T2 sequence (P30968 1-328): T1 sequence (P30968 1-328)
Nature of the test: Radioligand binding (ligand competition) assay, displacement of [125I]-[6D-Trp]-GnRH-I, human pituitary membranes. Particulars: for Inhibition of the binding of [125I]-[6D-Trp]-GnRH-I: at a concentration of 10^-6 M, tissue (human pituitary / human prostate cancer) not specified.
From the text: as §1, §2

Setting [4] is: Detroit-562, 0.1 µM, 5 h treatment, 10 min irradiation.
Where [5] appears, read: Detroit-562, 10 min irradiation.
Setting [6] is: membranes of human prostate cancer cells, read-out: IC50 Values, inhibition of [125I]-[6D-Trp]-GnRH-I binding, Human Prostate Cancer.
Setting [7] is: membranes of human pituitary, read-out: IC50 Values, inhibition of [125I]-[6D-Trp]-GnRH-I binding, Human Pituitary.

Usually IC50 stands for the point on the concentration scale where inhibition reaches its midpoint. As to `C=CC1=C(C)c2cc3[nH]c(cc4nc(cc5[nH]c(cc1n2)c(C)c5CCC(=O)O)C(CCC(=O)NCCCC[C@@H](NC(=O)[C@H](Cc1ccc(O)cc1)NC(=O)[C@H](CO)NC(=O)[C@H](Cc1c[nH]c2ccccc12)NC(=O)[C@H](Cc1c[nH]cn1)NC(=O)[C@@H]1CCC(=O)N1)C(=O)N[C@@H](CC(C)C)C(=O)N[C@@H](CCCNC(=N)N)C(=O)N1CCC[C@H]1C(=O)NCC(N)=O)=C4C)c(C)c3C=C` [compound 5, GnRH-I[^6D-Lys(PpIX)]], the figures for the half-maximal inhibitory concentration (IC50) in test [1] (5 h), in test [2] (setting [6]) and in test [3] (setting [7]) were 62.3 ± 5.9 nM, 42.7 ± 7.04 nM and 36.3 ± 3.17 nM, respectively. Also, the Cell viability inhibition in test [1] (setting [4]) is recorded as above 90%; in test [1] (Detroit-562, 5 h treatment, 2 min irradiation, sub-micromolar concentration), 50%. The “Cell viability inhibition (irradiation time optimization)” value in test [1] (setting [4]) was ~ 98%; in test [1] (Detroit-562, 0.1 µM, 5 h treatment, 30 min irradiation), ~ 98%. Also, in test [1] (Detroit-562, 5 h treatment, 0 min irradiation, 72 h further incubation), the “Toxicity in the absence of light” value is “non-toxic”. The “Effect of incubation time on cell viability inhibition” value in test [1] (setting [5]) is recorded as “higher activity”.

Turning to `C=CC1=C(C)c2cc3[nH]c(cc4nc(cc5[nH]c(cc1n2)c(C)c5CCC(=O)O)C(CCC(=O)O)=C4C)c(C)c3C=C` [PpIX, Protoporphyrin IX, reference compound], the Cell viability inhibition in test [1] (Detroit-562, 0.25 µM, 5 h treatment, 10 min irradiation) is reported as ~ 50%. For the same molecule, in test [1] (setting [5]), the “Effect of incubation time on cell viability inhibition” value was “no significant difference”. The IC50 in test [1] (Homo sapiens, Detroit 562, light or radiation study, read-out: Calculated IC50 values, cell viability inhibition) was 209 ± 120 nM. For the same molecule, in test [3], the “Inhibition of the binding of [125I]-[6D-Trp]-GnRH-I” value (“Inhibition … [125I]-[6D-Trp]-GnRH-I” below) is recorded as “did not inhibit”.

Regarding “hGHRH: peptide used as binding specificity control [reference compound]”, the “Inhibition … [125I]-[6D-Trp]-GnRH-I” value in test [3] is “did not inhibit”.

As for `CCCC(=O)NCCCC[C@H](NC(=O)[C@H](Cc1c[nH]c2ccccc12)NC(=O)[C@H](Cc1c[nH]cn1)NC(=O)[C@@H]1CCC(=O)N1)C(=O)N[C@@H](Cc1c[nH]cn1)C(=O)N[C@H](CCCCN)C(=O)N[C@@H](Cc1c[nH]c2ccccc12)C(=O)N[C@@H](Cc1ccc(O)cc1)C(=O)N1CCC[C@H]1C(=O)NCC(N)=O` [compound 3, GnRH-II[^4Lys(Bu), ^6D-Lys]] ([pGlu]HWK(Butyryl)H[dK]WYPG-NH2), the results for the IC50 in test [2] (setting [6]) and in test [3] (setting [7]) were 4.65 ± 0.31 nM and 5.56 ± 1.07 nM, respectively.

For `CCCC(=O)NCCCC[C@H](NC(=O)[C@H](Cc1c[nH]c2ccccc12)NC(=O)[C@H](Cc1c[nH]cn1)NC(=O)[C@@H]1CCC(=O)N1)C(=O)N[C@@H](Cc1ccc(O)cc1)C(=O)N[C@H](CCCCN)C(=O)N[C@@H](CC(C)C)C(=O)N[C@@H](CCCNC(=N)N)C(=O)N1CCC[C@H]1C(=O)NCC(N)=O` [compound 2, GnRH-I[^4Lys(Bu), ^6D-Lys]] ([pGlu]HWK(Butyryl)Y[dK]LRPG-NH2), the IC50 in test [2] (setting [6]) stood at 8.61 ± 1.08 nM; in test [3] (setting [7]), 9.7 ± 1.07 nM.

Consider “EGF: peptide used as binding specificity control [reference compound]”, for which the “Inhibition … [125I]-[6D-Trp]-GnRH-I” value in test [3] is “did not inhibit”.

Consider `C=CC1=C(C)c2cc3[nH]c(cc4nc(cc5[nH]c(cc1n2)c(C)c5CCC(=O)O)C(CCC(=O)NCCCC[C@H](NC(=O)[C@H](Cc1c[nH]c2ccccc12)NC(=O)[C@H](CC(=O)OC)NC(=O)[C@H](Cc1c[nH]cn1)NC(=O)[C@H](CCCCNC(=O)CCC)NC(=O)[C@H](Cc1c[nH]c2ccccc12)NC(=O)[C@H](Cc1c[nH]cn1)NC(=O)[C@@H]1CCC(=O)N1)C(=O)N1CCC[C@H]1C(=O)NCC(N)=O)=C4C)c(C)c3C=C` [compound 8, GnRH-III[^4Lys(Bu), ^6Asp(OMe), ^8Lys(PpIX)]], for which the Cell viability inhibition in test [1] (setting [4]) is reported as 65–70%. Besides, the IC50 in test [1] (read-out: Calculated IC50 values, cell viability inhibition, Detroit-562 cells, 5 h incubation, 10 min irradiation, further 72 h, MTT) was 81.8 ± 12.6 nM; in test [2], 341 ± 21.1 nM; in test [3] it was 289 ± 17.3 nM.

With “somatostatin-14: peptide structurally and/or functionally unrelated to GnRH, binding specificity control [reference compound]”, in test [3], the “Inhibition … [125I]-[6D-Trp]-GnRH-I” value is recorded as “did not inhibit”.

Regarding `C=CC1=C(C)c2cc3[nH]c(cc4nc(cc5[nH]c(cc1n2)c(C)c5CCC(=O)O)C(CCC(=O)NCCCC[C@@H](NC(=O)[C@H](Cc1ccc(O)cc1)NC(=O)[C@H](CCCCNC(=O)CCC)NC(=O)[C@H](Cc1c[nH]c2ccccc12)NC(=O)[C@H](Cc1c[nH]cn1)NC(=O)[C@@H]1CCC(=O)N1)C(=O)N[C@@H](CC(C)C)C(=O)N[C@@H](CCCNC(=N)N)C(=O)N1CCC[C@H]1C(=O)NCC(N)=O)=C4C)c(C)c3C=C` [compound 6, GnRH-I[^4Lys(Bu), ^6D-Lys(PpIX)]] ([pGlu]HWK(Butyryl)Y[dK](X1)LRPG-NH2), the IC50 was found to be 89.8 ± 19.4 nM in test [1] (5 h), 41.8 ± 5.74 nM in test [2] (setting [6]) and 42.3 ± 4.27 nM in test [3] (setting [7]). Further, in test [1] (setting [4]), the Cell viability inhibition is 65–70%.

On to “VIP: peptide used as binding specificity control [reference compound]”, for which, in test [3], the “Inhibition … [125I]-[6D-Trp]-GnRH-I” value is reported as “did not inhibit”.

Regarding “glucagon: peptide used as binding specificity control [reference compound]”, the “Inhibition … [125I]-[6D-Trp]-GnRH-I” value in test [3] was “did not inhibit”.

With `C=CC1=C(C)c2cc3[nH]c(cc4nc(cc5[nH]c(cc1n2)c(C)c5CCC(=O)O)C(CCC(=O)NCCCC[C@@H](NC(=O)[C@H](Cc1c[nH]cn1)NC(=O)[C@H](CCCCNC(=O)CCC)NC(=O)[C@H](Cc1c[nH]c2ccccc12)NC(=O)[C@H](Cc1c[nH]cn1)NC(=O)[C@@H]1CCC(=O)N1)C(=O)N[C@@H](Cc1c[nH]c2ccccc12)C(=O)N[C@@H](Cc1ccc(O)cc1)C(=O)N1CCC[C@H]1C(=O)NCC(N)=O)=C4C)c(C)c3C=C` [compound 7, GnRH-II[^4Lys(Bu), ^6D-Lys(PpIX)]] ([pGlu]HWK(Butyryl)H[dK](X1)WYPG-NH2), the IC50 was found to be 71.1 ± 6.2 nM in test [1] (5 h), 84.5 ± 10.3 nM in test [2] (setting [6]) and 79.4 ± 8.88 nM in test [3] (setting [7]). In test [1] (setting [4]), this molecule showed a Cell viability inhibition above 90%.

Turning to “IGF-I: peptide used as binding specificity control [reference compound]”, in test [3], the “Inhibition … [125I]-[6D-Trp]-GnRH-I” value is “did not inhibit”.

With `CCCC(=O)NCCCC[C@H](NC(=O)[C@H](Cc1c[nH]c2ccccc12)NC(=O)[C@H](Cc1c[nH]cn1)NC(=O)[C@@H]1CCC(=O)N1)C(=O)N[C@@H](Cc1c[nH]cn1)C(=O)N[C@@H](CC(=O)OC)C(=O)N[C@@H](Cc1c[nH]c2ccccc12)C(=O)N[C@@H](CCCCN)C(=O)N1CCC[C@H]1C(=O)NCC(N)=O` [compound 4, GnRH-III[^4Lys(Bu), ^6Asp(OMe)]], the IC50 is 6.56 ± 1.11 nM in test [2] (setting [6]) and 7.27 ± 0.92 nM in test [3] (setting [7]).
